This is an account of results in patent publication US11045485B2, “Glycomimetic inhibitors of PA-IL and PA-IIL lectins” (GlycoMimetics, Inc., priority 2016, dated 2021).

“And” between values parts separate entries of the source, which are not always exact repeats. Identical values can stand only once.

In data set [1] the test system is Pseudomonas aeruginosa PAO1 strain. Put plainly: Acute P. aeruginosa-induced infection in mouse, association with tobramycin. Type of data set: in vivo, male C57BL6/J mice. As to the method: (§1) Pseudomonas aeruginosa PAO1 strain is a sequenced, well-characterized strain used as reference strain. Bacteria were grown overnight at 37° C. in Lysogeny Broth Lennox (LB) (BD Europe, Le pont de Claix, France) under orbital shaking (300 rpm) from frozen stock. A secondary culture was performed during 2 hours and before harvesting the bacteria by centrifugation (2000 g, 5 min), and two washings with sterile phosphate-buffered saline (PBS). Turbidity was then approximated by measurement of optical density at A600 (Ultrospec 10 Cell Density Meter, General Electric, Fairfield, Conn.) and verified by serial dilution and plating on LB agar Plates.
(§2) Vehicle was phosphate buffered saline, and test solutions are Glycomimetic Compound (I) 40 mM in PBS, and Compound A 40 mM in PBS. Test articles were provided by GlycoMimetics and stored at −20° C. Tobramycin (1 g) was provided by Laboratoire EREMPHARMA (25 rue Greffulhe—92300 Levallois) and stored at (+4° C.).
(§3) Male C57BL6/J mice (8 weeks old) purchased from Janvier Labs (Route du Genest, 53940 Le Genest-Saint-Isle) were housed a pathogen-free unit of the Lille University Animal Care Facility and allowed food and water ad lib.
(§4) Mice were anesthetized briefly with inhaled sevoflurane (Sevorane™, Abbott, Queensborough, UK), allowing maintenance of spontaneous breathing after which 50 μL of the bacterial solution were administered intranasally representing a total of 1.10^6 CFU/mouse (except for tobramycin study conducted with lethal inoculate of […]). Control mice receive 50 μL of PBS. All mice were sacrificed at 24 h (except for survival studies, mice were monitored on weight and clinical score 96 h post bacterial infection). Glycomimetic Compound (I) or Compound A were administered IN with the inoculum or post-infection (see FIG. 8 and FIG. 12). In appropriate groups, mice were treated 24 h after infection with 12 mg/kg tobramycin administered intraperitoneally.
(§5) For each group, treatment effect was measured with the disease score and daily mortality rate post challenge. The evolution of the disease score assessing the clinical appearance of the animals was evaluated on 4 items scored from 0 to 10 summarized in Table 1 (body temperature, appearance of the bristle, behavior and weight loss; 0: healthy mice, 10 moribund mice). All disease score assessments were performed by two experimenters throughout the study.
(§6) Statistical analysis was performed using Prism 5 software (Graph-Pad Software, San Diego Calif.). Values are expressed as mean±SEM. Comparison groups were analysed with the nonparametric Mann-Whitney test. Survival curves were analysed using Log-rank (Mantel-Cox) test. *p<0.05; ** p<0.01; *** p<0.001 Results are mean+/−Standard error.
Mice, 8 weeks old C57Bl/6J male, received intranasally 2.10^7 CFU of PAO1 and Glycomimetic Compound (I) or Compound A at different time points with or without an intraperitoneal injection of tobramycin 12 mg/kg (FIG. 12).

The target in a further data set is T1, PA-IL (Pseudomonas aeruginosa, UniProt Q05097).
T1 construct: purchased Sigma-Aldrich, St. Louis, Mo
In words: Assay for PA-IL antagonist activity (competition with α-galactose-PAA-biotin/streptavidin-HRP on coated plate). Type of data set: binding. The procedure: (§7) Wells of a microtiter plate (plate 1) are coated with PA-IL (Sigma-Aldrich, St. Louis, Mo.) by incubation for 2 hrs at 37° C. The wells are then blocked for 2 hrs by the addition of 1% bovine serum albumin (BSA) diluted in TBS-Ca (50 mM TrisHCl, 150 mM NaCl, 2 mM CaCl2) pH 7.4) mixed 1:1 v/v with Stabilcoat (Surmodics, Eden Prairie, Minn.). In a second low-binding round-bottom microtiter plate (plate 2), test antagonists are serial diluted in 1% BSA in TBS-Ca/Stabilcoat (60 μl/well). Preformed conjugates of α-galactose-PAA-biotin (GlycoTech Corp, Gaithersburg, Md.) mixed with streptavidin-HRP (KPL Labs, Gaithersburg, Md.) are added to each well of plate 2 (60 μl/well of 2 μg/ml). Plate 1 is then washed with TBS-Ca and 100 μl/well are transferred from plate 2 to plate 1. After incubation at room temperature for 2 hrs, plate 1 is washed and 100 μl of TMB reagent (KPL Labs, Gaithersburg, Md.) is added to each well. After incubation for 5 minutes at room temperature, the reaction is stopped by adding 100 μl/well of 1M H3PO4 and the absorbance of light at 450 nm is determined by a microtiter plate reader. Absorbance is plotted as a function of antagonist concentration and the concentration at which 50% maximal absorbance (IC50) is obtained is determined from the plot.

The target in another data set is T2, PA-IIL (Pseudomonas aeruginosa, UniProt Q9HYN5).
T2 construct: Dr. Wimmerova, Masaryk University, Brno, Czech Republic (academic supplier)
In words: Assay for PA-IIL antagonist activity (competition with fucose-PAA-biotin/streptavidin-HRP on coated plate). Type of data set: binding. As to the method: as §7, with “PA-IIL (Dr. Wimmerova, Masaryk University, Brno, Czech Republic)” for “PA-IL (Sigma-Aldrich, St. Louis, Mo.)”, “CaCl2” for “CaCl2)”, “fucose-PAA-biotin” for “α-galactose-PAA-biotin”

For data set [2], the system named is Pseudomonas aeruginosa strain PaO. In words: Acute lung injury model, compound co-administered with bacteria. Type of data set: in vivo, male BalB/c mice. As to the method: Cohorts of male BalB/c mice (n=5/group) were infected intranasally with either a low (1-2×10^6 CFU) or a high (1-2×10^7 CFU) inoculum of Pseudomonas aeruginosa strain PaO, in combination with saline or multiple dose levels ([…], corresponding to 10, 25 and 50 mg/kg, respectively) of glycomimetic compound (I) or compound A. The bacteria were coadministered with glycomimetic compound (I) or compound A directly into the lungs of each mouse by intratracheal (i.t.) injection via the oropharynx using a 24-gauge feeding needle (total volume of 0.05 mL).
The animals were observed daily beginning 24 hours post infection and cumulative clinical (disease) scores were determined for each mouse (FIGS. 4 and 6). Parameters assessed were: (a) for appearance (smooth→bristly); (b) body temperature (normal→cold); (c) movement (moving→prostate); and (d) weight loss. Clinical scoring ranged from 0 (normal, uninfected appearance) to 10 (severely compromised).
Animals were observed daily for morbidity/mortality and day of death recorded. Kaplan-Meier analysis was used to estimate survival function from life-span data and statistical values derived from a log rank test.

The nature of data set [3]: Uninfected mice treated with compound (non-specific toxicity control). Type of data set: in vivo. The note with it: 40 mM.
Another data set deals with Pseudomonas aeruginosa. Put plainly: Acute lung injury model, treatment with tobramycin. Type of data set: in vivo, mice. The procedure:
Mice were co-administered 2×10^7 CFU Pseudomonas aeruginosa with or without compound A or glycomimetic compound (I) in combination with 12 mg/kg tobramycin. The tobramycin was administered intraperitoneally 6 hours after bacterial challenge.

Data set [4] has as its system Pseudomonas aeruginosa PAO1 strain. Put plainly: Acute P. aeruginosa-induced infection in mouse, monotherapy at different inoculation times. Type of data set: in vivo, male C57BL6/J mice. The procedure: as §1, §2, §3, §4, §5, §6
Mice, 8 weeks old C57Bl/6J male, received intranasally 1.10^7 CFU of PaO1 and Glycomimetic Compound (I) or Compound A at different time points, as described in FIG. 8.
We analyzed weight loss, clinical disease score and mortality. Fourteen independent cohorts of 5 mice each were tested. Each cohort included an equal representation of testing conditions. All stage 1 cohorts were tested over 4 days. At the conclusion of Stage 1, there was a total of 10 mice for each of the above 7 treatment groups.

Where [5] appears, read: 2.10^7 CFU PAO1, agent alone, H4 administration.

T2 sequence (Q9HYN5 entry or part of it): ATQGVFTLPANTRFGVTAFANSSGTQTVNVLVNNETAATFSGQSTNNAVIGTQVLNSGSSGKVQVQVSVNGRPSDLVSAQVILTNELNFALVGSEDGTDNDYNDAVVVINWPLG
T1 sequence (Q05097 whole entry): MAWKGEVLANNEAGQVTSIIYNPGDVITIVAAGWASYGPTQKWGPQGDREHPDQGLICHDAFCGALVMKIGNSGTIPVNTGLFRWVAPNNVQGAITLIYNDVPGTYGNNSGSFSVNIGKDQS

For the compound `NC[C@H]1O[C@H](O[C@H]2[C@H](O)[C@@H](O[C@H]3O[C@H](CO)[C@@H](O)[C@H](N)[C@H]3O)[C@H](N)C[C@@H]2N)[C@H](N)C[C@@H]1O` [tobramycin, reference compound], the survival in data set [1] (setting [5]) turned out to be 70%; in data set [1] (2.10^7 CFU PAO1, agent alone, at 6 h), 10%.

Regarding `CC1CCC[C@@H](O[C@@H]2OC(CO)[C@H](O)C(O[C@H]3OC(CO)[C@H](O)C(O)C3O)C2O)C1OC1O[C@@H](C)C(O)C(O)[C@@H]1O` (stereo partly drawn) [Glycomimetic Compound (I)], the half-inhibitory concentration (IC50) was 7.2 µM on PA-IL and 0.44 µM on PA-IIL. The survival is 60% in data set [2] (high inoculum, co-administered 20 mM, at 96 hr); 100% in data set [2] (high inoculum, co-administered 40 mM, at 96 hr); 100% in data set [2] (low inoculum 2×10^6 CFU, co-administered 40 mM compound, i.t.); 40% with Pseudomonas aeruginosa (8 mM in combination with 12 mg/kg tobramycin); 100% in the data set on Pseudomonas aeruginosa (20 mM in combination with 12 mg/kg tobramycin); 100% with Pseudomonas aeruginosa (40 mM in combination with 12 mg/kg tobramycin). For the same compound, the survival in data set [4] (1.10^7 CFU PaO1, compound administered after 4 hours of infection) is 40%; in data set [4] (1.10^7 CFU PaO1, compound administered after 6 hours of infection) it was 25% and 20%; in data set [4] (1.10^7 CFU PaO1, compound administered after one hour of infection) it was 54.5%; in data set [4] (1.10^7 CFU PaO1, compound administered with the bacteria) it was 90%; in data set [1] (setting [5]), 30%; in data set [1] (2.10^7 CFU PAO1, association with tobramycin 12 mg/kg i.p., H4 administration) it was 90%. In data set [1] (2.10^7 CFU PAO1, association with tobramycin 12 mg/kg i.p., at 6 h), this compound came in with a survival of 50%. Also, the morbidity or mortality entry in data set [3] is on record as “no morbidity or mortality was observed”. Besides, the survival benefit result in the data set with Pseudomonas aeruginosa (8, 20 and 40 mM co-administered with bacteria, plus 12 mg/kg tobramycin i.p. 6 hours after challenge) is recorded as “significantly increased”. In data set [4] (monotherapy, FIGS. 10 and 11), the “effect on weight and score disease” value was “superior to Compound A”. The score disease entry in data set [1] (with tobramycin, at 4 hours) is “lower score”.
